Measured values published in patent US10632324B2, “Method for the treatment of skin tissues” (9127-4910 Quebec Inc., priority 2017, dated 2020).

Assays:
[1] = tested on: facial papulo-pustular inflammatory acne lesions; test: Split-face radiant IR skin preparation prior to PDT, inflammatory acne of the face (Example 6); type: in vivo, human
Protocol: A person was treated for facial papulo-pustular inflammatory acne lesions. After performing an acetone scrub on the treatment area, a radiant IR skin preparation was done on the right side of their face (970 nm, 80 mW/cm2, for 30 min). Then 5-aminolevulinic acid (Levulan™ Kerastick™) was applied to the skin and left for 90 min incubation time. […] Radiant IR skin preparation allows for a reduction in the number of PDT treatments necessary for significant clinical improvements.

cystic acne = test: Split face/back pre-PDT radiant IR study, 10 cystic acne patients (Example 8); type: in vivo, human; settings: for decrease in the number of cystic lesions: one month after PDT
Protocol: In summary, ten patients were enrolled in a split face or split back (pre-treated side versus control) study with a pre-approved IRB protocol. […] Lesion count was assessed both manually and by digital photography before and 4 weeks after one PDT procedure. Prior to the application of 5-ALA, one side of the face or back was pre-treated with radiant IR [CW LEDs emitting @λ 970 nm, irradiance 50 mW/cm2 for 15 minutes, total fluence 45 J/cm2], while the other half was used as control. PDT was then performed on the entire surface (face or back) using 5-ALA in a conventional manner.
Patients were assigned to a split face or split back group. One side was pre-treated for 15 minutes with radiant IR [CW LEDs emitting @λ 970 nm, irradiance 50 mW/cm^2, total fluence 45 J/cm^2] to obtain a temperature of about 42 Celsius, while the other side was used as control. ALA was then applied after which PDT was performed on the entire face or back surface. Lesion count was assessed manually and by digital photography, before and 4 weeks after the PDT procedure. Exclusion criteria were: current use of the following medications: (Prednisone), anticoagulant therapy, drugs known to cause photo-sensitivity reactions. In addition, during 12 months preceding the study, subjects are required not to take Accutane (isotretinoin); use of corticosteroids on the treated area within 2 weeks of first treatment; use of topical tretinoin (like Retisol-A, Retin-A, Vitamin A acid, Retin-A micro) for at least 1 month prior to enrollment; yanned skin around or on the area to be treated: the back. previous laser of medicated treatment at the treatment site (to be studied) and for the duration of the study; presence of any known diseases among vitiligo, psoriasis, severe eczema, poor skin healing. active infection, immunosuppression, coagulation problem, peripheral arterial disease, hematologic abnormalities, vasculitis, and previous history of epilepsy; pregnancy; alcohol or drug abuse before and during the study.
After the pre-treatment with IR radiation, 5-ALA was applied onto slightly abraded skin and left to incubate for 60 minutes on both IR-pre-treated and control sides. Then, the 5-ALA treated regions were irradiated with a LED source of red light (wavelength of […], in accordance to standard therapy, until a mild to moderate erythema appeared. Immediately afterwards, the 5-ALA treated regions were irradiated with a LED source of blue light (wavelength of 405 nm, power density 30 mW/cm^2) in continuous wave mode for 3 min.

Q: How did the lesion number reduction ([1]; IR treated side (970 nm, 80 mW/cm2, 30 min), 90 min incubation, one treatment) turn out when `NCC(=O)CCC(=O)O` [5-ALA, 5-aminolevulinic acid] was run?
A: The lesion number reduction was 60-70%.

Q: What about the “clinical outcome of side without IR” value ([1]; untreated (no IR) side, PDT alone) of the same molecule?
A: Its value is “needed an additional PDT session to achieve similar results”.

Q: And the “decrease in the number of cystic lesions” value (cystic acne; IR pre-treated side (970 nm, 50 mW/cm2, 15 min))?
A: Its value is 72.5%.

Q: What about the “mean+/-standard error number of lesions after treatment” value (cystic acne; IR treated site, baseline 49.7+/-13.7) of the same molecule?
A: The value was 12.0+/−2.3.

Q: And the treatment-related adverse effects (cystic acne; both sides)?
A: Its treatment-related adverse effects is “No treatment-related adverse effects were reported”.

Q: What about the “decrease in the number of cystic lesions” value (cystic acne; control side (no IR)) of the same molecule?
A: The value was 47.1%.

Q: What about the “mean+/-standard error number of lesions after treatment” value (cystic acne; control side, baseline 35.9+/-8.3) of the same molecule?
A: Its value is 16.3+/−3.
